Laboratory results: the NIST ThermoML archive (doi:10.1016/j.fluid.2015.06.041)

Assay: xn = mol fraction of the nth substance listed
Settings: 101 kPa, Liquid; for viscosity: Capillary tube (Ostwald / Ubbelohde) method; for speed of sound: Frequency=2 MHz, Linear variable-path acoustic interferometer; for mass density: Vibrating tube method

ClCCCl [1,2-dichloroethane] + C1COCCO1
Settings | mass density, 298.15 K [kg/m3] | mass density, 308.15 K [kg/m3] | mass density, 318.15 K [kg/m3] | speed of sound, 298.15 K [m/s] | viscosity, 298.15 K [mPa·s] | viscosity, 308.15 K [mPa·s] | viscosity, 318.15 K [mPa·s]
x2 = 0 | 1246.37 | 1231.21 | 1214.55 | 1193.6 | 0.7804 | 0.6744 | 0.5719
x2 = 0.0934 | 1221.34 | 1206.17 | 1189.14 | 1198.9 | 0.8045 | 0.6918 | 0.5856
x2 = 0.1881 | 1197.17 | 1182.34 | 1164.97 | 1204.7 | 0.8332 | 0.7127 | 0.6042
x2 = 0.2843 | 1173.99 | 1159.5 | 1141.96 | 1211.7 | 0.864 | 0.737 | 0.6266
x2 = 0.3819 | 1151.77 | 1137.63 | 1120 | 1218.7 | 0.8974 | 0.7628 | 0.6499
x2 = 0.4258 | 1142.09 | 1128.16 | 1110.67 | 1222.7 | 0.9132 | 0.7747 | 0.6611
x2 = 0.5816 | 1109.56 | 1096.17 | 1079.43 | 1240.4 | 0.9729 | 0.8211 | 0.705
x2 = 0.6838 | 1089.25 | 1076.38 | 1060.46 | 1256.1 | 1.016 | 0.8551 | 0.7374
x2 = 0.7875 | 1069.16 | 1056.58 | 1042.21 | 1277.4 | 1.064 | 0.8949 | 0.775
x2 = 0.8929 | 1048.86 | 1036.88 | 1024.08 | 1306.8 | 1.117 | 0.9435 | 0.8234

NCCO [2-aminoethan-1-ol] + C1COCCO1
Settings | mass density, 298.15 K [kg/m3] | mass density, 308.15 K [kg/m3] | mass density, 318.15 K [kg/m3] | speed of sound, 298.15 K [m/s] | viscosity, 298.15 K [mPa·s] | viscosity, 308.15 K [mPa·s] | viscosity, 318.15 K [mPa·s]
x2 = 0 | 1011.79 | 1004.68 | 998.15 | 1716.8 | 18.95 | 11.96 | 7.913
x2 = 0.0597 | 1015.53 | 1007.5 | 1000.35 | 1696.8 | 16.05 | 10.32 | 6.94
x2 = 0.1251 | 1018.05 | 1010.07 | 1001.77 | 1677.7 | 13.39 | 8.772 | 6.01
x2 = 0.1969 | 1020.39 | 1011.65 | 1003.06 | 1654.2 | 10.97 | 7.34 | 5.132
x2 = 0.276 | 1022.47 | 1013.21 | 1004.08 | 1626.7 | 8.798 | 6.031 | 4.321
x2 = 0.3639 | 1024.23 | 1014.47 | 1004.75 | 1593.6 | 6.892 | 4.851 | 3.555
x2 = 0.4618 | 1025.64 | 1015.23 | 1004.92 | 1557.5 | 5.249 | 3.804 | 2.867
x2 = 0.5716 | 1026.41 | 1015.49 | 1005.06 | 1517.9 | 3.868 | 2.898 | 2.255
x2 = 0.6958 | 1027.09 | 1015.74 | 1004.96 | 1471.8 | 2.739 | 2.132 | 1.719
x2 = 0.8373 | 1027.58 | 1016.22 | 1005.1 | 1417.1 | 1.849 | 1.506 | 1.266

NCCN [ethane-1,2-diamine] + C1COCCO1
Settings | mass density, 298.15 K [kg/m3] | mass density, 308.15 K [kg/m3] | mass density, 318.15 K [kg/m3] | speed of sound, 298.15 K [m/s] | viscosity, 298.18 K [mPa·s] | viscosity, 308.15 K [mPa·s] | viscosity, 318.15 K [mPa·s]
x2 = 0 | 894.79 | 885.63 | 867.62 | 1670.8 | 1.276 | 1.107 | 0.9445
x2 = 0.08 | 907.17 | 897.75 | 880.1 | 1625.9 | 1.263 | 1.092 | 0.9318
x2 = 0.1636 | 919.48 | 909.85 | 892.74 | 1585.3 | 1.25 | 1.078 | 0.9205
x2 = 0.2511 | 931.76 | 921.06 | 905.51 | 1546.2 | 1.239 | 1.066 | 0.9111
x2 = 0.3428 | 944.28 | 934.33 | 918.46 | 1506.8 | 1.228 | 1.053 | 0.9021
x2 = 0.385 | 949.92 | 939.89 | 924.35 | 1488.8 | 1.223 | 1.048 | 0.8983
x2 = 0.5399 | 970.35 | 959.96 | 945.42 | 1428.4 | 1.206 | 1.033 | 0.8929
x2 = 0.6461 | 984.1 | 973.48 | 959.55 | 1395.1 | 1.197 | 1.026 | 0.8913
x2 = 0.7578 | 998.37 | 987.59 | 974.27 | 1369.6 | 1.189 | 1.019 | 0.8918
x2 = 0.8756 | 1013.03 | 1002.04 | 989.43 | 1353.7 | 1.182 | 1.016 | 0.8902
